# Assay results as given in patent US12486228B2, “N-substituted indoles and use as allosteric modulators of cannabinoid receptors” (priority 2018, dated 2025).
# Where two headings read alike, the source gives them in different places.
# Tests used:
# [1] = tested on: normotensive C57Bl/6J mice; conditions: 0.2% GAT1102 combined with subthreshold 0.25% WIN55,212-2, topical, at 6 and 12 hrs, n=5, P<0.05
# Protocol: (§1) Normotensive C57Bl/6J mice and Sh3pxd2b mice were obtained from Jackson Laboratory (Bar Harbor, Maine). The Sh3pxd2b mice were bred in house, and their progenies with abnormal phenotypical morphology, identified as a nee mice, were used for experiments.
# (§2) Drug was administered topically (5 μl/eye) to the right eyes, while the left eyes received vehicle control (2% DMSO+4% Tween-20 in Tocrisolve; 5 μl).
# (§3) Mice were anesthetized with the isoflurane (3% induction, 1.5% maintenance). The intraocular pressure (TOP) was measured with a handheld rebound tonometer (Tonolab, Icare, Finland), calibrated to mouse. Ten recordings were taken for each eye and then averaged. The IOP readings were taken at time 0 (baseline), 1, 6 and 12 hrs after the drug/vehicle administration. All the measurements were taken at the same time of the day, in order to minimize variability related to diurnal changes in IOP.
# (§4) Data was analyzed by GraphPad version 6.0 (GraphPad Software, Inc., La Jolla, CA). Paired t-tests were used to compare between eyes of the same animal. A P value of <0.05 was considered significant. […] Values are represented as a change in IOP from the baseline (time 0).
# [2] = tested on: ocular hypertensive nee mice; conditions: GAT1102 0.2% alone, topical, at 1 and 12 hrs, n=6, P<0.05
# Protocol: as §1, §2, §3, §4
# [3] = tested on: excitatory postsynaptic currents (EPSCs)
# CB2 [4] = target: T1, CB2 (Homo sapiens, UniProt P34972); experiment: cell-based; conditions: for EC50 / Emax: CB2, agonist mode; for EC50: read-out: CB2 Agonist mode cAMP EC50; for Emax: read-out: CB2 Agonist mode cAMP Emax
# T1 sequence (P34972 whole entry, species assumed): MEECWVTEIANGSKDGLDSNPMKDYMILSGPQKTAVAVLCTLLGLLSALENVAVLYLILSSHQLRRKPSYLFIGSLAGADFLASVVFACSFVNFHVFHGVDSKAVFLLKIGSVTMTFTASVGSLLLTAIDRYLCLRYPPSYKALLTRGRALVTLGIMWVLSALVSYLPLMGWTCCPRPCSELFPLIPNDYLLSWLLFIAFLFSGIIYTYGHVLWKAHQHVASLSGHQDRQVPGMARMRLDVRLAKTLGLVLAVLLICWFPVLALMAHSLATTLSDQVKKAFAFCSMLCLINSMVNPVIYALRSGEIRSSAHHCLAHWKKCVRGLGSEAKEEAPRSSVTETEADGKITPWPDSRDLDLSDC
# CB2 [5] = target: T1, CB2; experiment: cell-based; conditions: CB2, agonist mode; for EC50: read-out: CB2 Agonist mode β-Arrestin EC50; for Emax: read-out: CB2 Agonist mode β-Arrestin Emax
# hCB1 [6] = target: T2, hCB1 (Homo sapiens, UniProt P21554); experiment: cell-based; design: host or cells: CHO-K1
# T2 sequence (P21554 whole entry): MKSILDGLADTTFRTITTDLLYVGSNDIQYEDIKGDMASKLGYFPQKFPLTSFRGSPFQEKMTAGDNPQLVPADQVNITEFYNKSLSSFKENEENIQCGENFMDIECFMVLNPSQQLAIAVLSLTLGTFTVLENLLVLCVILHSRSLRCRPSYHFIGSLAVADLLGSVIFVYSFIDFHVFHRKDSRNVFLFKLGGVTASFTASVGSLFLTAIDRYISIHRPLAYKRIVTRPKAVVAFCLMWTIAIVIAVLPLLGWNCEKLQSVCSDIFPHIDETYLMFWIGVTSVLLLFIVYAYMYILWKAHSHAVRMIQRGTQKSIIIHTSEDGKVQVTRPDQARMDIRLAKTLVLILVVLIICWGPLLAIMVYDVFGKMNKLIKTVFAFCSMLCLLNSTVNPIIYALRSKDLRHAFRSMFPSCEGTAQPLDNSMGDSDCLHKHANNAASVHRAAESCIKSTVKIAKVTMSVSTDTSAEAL
# Protocol: HitHunter cAMP assay: Inhibition of forskolin-stimulated cAMP was determined using the DiscoveRx HitHunter assay in hCB1R CHO-K1 cells. Cells (20,000 cells/well in low-volume 96 well plates) were incubated overnight in Opti-MEM (Invitrogen) containing 1% FBS at 37° C. and 5% CO2. Following this, Opti-MEM media was removed and replaced with cell assay buffer (DiscoveRx) and cells were co-treated at 37° C. with 10 μM forskolin and hCB1R ligands (0.10 nM-10 μM) for 30 min or 90 min cAMP antibody solution and cAMP working detection solutions were then added to cells according to the manufacturer's directions (DiscoveRx®) and cells were incubated for 60 min at room temperature. cAMP solution A was added according to the manufacturer's directions (DiscoveRx®) and cells were incubated for an additional 60 min at room temperature before chemiluminescence was measured on a Cytation 5 plate reader (top read, gain 200, integration time 10,000 ms).
# hCB1 [7] = target: T2, hCB1; experiment: cell-based; design: host or cells: CHO-K1 PathHunter
# Protocol: PathHunter CB1 β-Arrestin Assay: Chinese hamster ovary K1 (CHO-K1)-PathHunter hCB1 β-arrestin cells (DiscoveRx, Fremont, CA) were seeded at 5000 cells/well in 384-well plates 24 h before use and incubated at 37° C., 5% CO2. Compounds were dissolved in dimethyl sulfoxide (DMSO) and diluted in optimized cell culture (OCC) media. Agonist EC80 was determined directly from an agonist dose—response curve (data not shown). […] Five microliters of allosteric modulator or vehicle solution was added to each well at the appropriate concentrations and incubated for 30 min. Five microliters of agonist was then added to each well followed by a 90 min incubation. Fifteen microliters of detection reagent was then added followed by further 60 min incubation at room temperature. Chemiluminescence was measured on a standard luminescence plate reader as relative light units (RLU). Basal RLU was defined as zero. […] Data were analyzed using the fourparameter variable-slope and allosteric EC50 shift nonlinear regression equations in Prism 5.0 (GraphPad, San Diego, CA).
# [8] = CB1, PAM mode, read-out: CB1 PAM mode cAMP EC50
# [9] = CB1, agonist mode, read-out: CB1 Agonist mode cAMP EC50
# [10] = read-out: CB1 Agonist mode cAMP Emax, CB1, agonist mode
# [11] = read-out: CB1 PAM mode cAMP Emax, CB1, PAM mode
# [12] = CB1, PAM mode, read-out: CB1 PAM mode β-Arrestin EC50
# [13] = CB1, agonist mode, read-out: CB1 Agonist mode β-Arrestin EC50
# [14] = read-out: CB1 Agonist mode β-Arrestin Emax
# [15] = read-out: CB1 PAM mode β-Arrestin Emax
Structure (SMILES),IOP compared to vehicle [1],IOP change [2],agonist properties (direct inhibition of EPSCs) ([3]; 1 μM GAT1102),"PAM effect on depolarization-induced suppression of excitation (DSE) ([3]; slowing recovery for DSE, in most cases occluded by direct inhibition)",EC50 (CB2 [4]),Emax (CB2 [4]),EC50 (CB2 [5]),Emax (CB2 [5]),EC50 (hCB1 [6]; [8]),EC50 (hCB1 [6]; [9]),Emax (hCB1 [6]; [10]),Emax (hCB1 [6]; [11]),EC50 (hCB1 [7]; [12]),EC50 (hCB1 [7]; [13]),Emax (hCB1 [7]; [14]),Emax (hCB1 [7]; [15]),CB2 Agonist mode cAMP Emax (CB2 [4])
"O=C(O)CCC(c1ccccc1)c1cn(-c2ccccc2)c2ccccc12 (stereo not shown) [GAT1102, 4-Phenyl-4-(1-phenyl-1H-indol-3-yl)butanoic acid]",significantly lower,significantly decreased IOP,exhibited agonist properties in some cells,some evidence of a modest GAT1102 PAM effect,–,–,–,–,–,–,–,–,–,–,–,–,–
"O=C(O)CCCCC(c1ccccc1)c1cn(-c2ccccc2)c2ccccc12 (stereo not shown) [Compound 20, 6-Phenyl-6-(1-phenyl-1H-indol-3-yl)hexanoic acid]",–,–,–,–,505 nM,98%,> 10000 nM,0%,1090 nM,355 nM,96%,96%,> 10000 nM,> 10000 nM,0%,0%,–
"O=C(O)CCC(c1ccccc1)c1cn(-c2ccncc2)c2ccccc12 (stereo not shown) [Compound 23, 4-Phenyl-4-(1-(pyridin-4-yl)-1H-indol-3-yl)butanoic acid]",–,–,–,–,570 nM,78%,> 10000 nM,0%,1060 nM,357 nM,83%,104%,> 10000 nM,> 10000 nM,0%,0%,–
"CC(=O)CC(C)C(c1ccccc1)c1cn(-c2ccccc2)c2ccccc12 (stereo not shown) [Compound 41, 4-Methyl-5-phenyl-5-(1-phenyl-1H-indol-3-yl)pentan-2-one]",–,–,–,–,> 10000 nM,–,> 10000 nM,0%,> 10000 nM,> 10000 nM,0%,0%,> 10000 nM,> 10000 nM,0%,0%,(34) %
"Cc1ccc2c(C(CCC(=O)O)c3ccccc3)cn(-c3ccccc3)c2c1 (stereo not shown) [Compound 17, 4-(6-Methyl-1-phenyl-1H-indol-3-yl)-4-phenylbutanoic acid]",–,–,–,–,1000 nM,74%,> 10000 nM,0%,1440 nM,1250 nM,73%,93%,> 10000 nM,> 10000 nM,0%,0%,–
"O=C(O)CC=C(c1ccccc1)c1cn(-c2ccccc2)c2ccccc12 (mixture of isomers) [Compound 16, (E and Z)-4-Phenyl-4-(1-phenyl-1H-indol-3-yl)but-3-enoic acid]",–,–,–,–,359 nM,80%,> 10000 nM,0%,934 nM,689 nM,94%,104%,> 10000 nM,> 10000 nM,0%,0%,–
"O=C(O)CCC(c1ccccc1)c1cn(C(=O)c2ccccc2)c2ccccc12 (stereo not shown) [Compound 29, 4-(1-Penzoyl-1H-indol-3-yl)-4-phenylbutanoic acid]",–,–,–,–,419 nM,76%,> 10000 nM,0%,709 nM,596 nM,92%,114%,> 10000 nM,> 10000 nM,0%,0%,–
